Measured values: US20250179000A1 (Sanford Burnham Prebys Medical Discovery Institute, priority 2021, published 2025)

Legend:
Rat mGlu3 = target: T1, Rat mGlu3 (Rattus norvegicus, UniProt P31422); assay: mGlu receptor in vitro assay (thallium flux through GIRK channels / calcium assay), rat mGlu3; format: cell-based; conditions: PAM potency with EC20 glutamate
T1 construct: expressed in transfected cells; host or cells: HEK-293 co-expressing GIRK channels
Procedure: (§1) Human Embryonic Kidney (HEK-293) cell lines co-expressing rat mGlu receptors 2, 3, 4, 6, 7 or 8 and G protein-coupled inwardly-rectifying potassium (GIRK) channels were grown in Growth Media containing 45% DMEM, 45% F-12, 10% FBS, 20 mM HEPES, 2 mM L-glutamine, antibiotic/antimycotic, non-essential amino acids, 700 μg/mL G418, and 0.6 μg/ml puromycin at 37° C. in the presence of 5% CO2. […] All cell culture reagents were purchased from Invitrogen Corp. (Carlsbad, CA) unless otherwise noted. Calcium assays were used to assess activity of compounds at mGlu1 and mGlu5, as previously described in Engers et al (J. Med. Chem. 2009, 52, 4115-4118). Calcium assays at mGlu3 were performed as described for mGlu5 with the exception that TREx293 mGlu3 Gα15 cells were treated with tetracycline at 20 ng/mL for 20 h prior to assay.
(§2) Compound activity at the group II (mGlu2 and mGlu3) and group III (mGlu4, mGlu6, mGlu7, and mGlu8) was assessed using thallium flux through GIRK channels, a method that has been described in detail. Briefly, cells were plated into 384-well, black-walled, clear-bottomed poly-D-lysine-coated plates at a density of 15,000 cells/20 μL/well in DMEM containing 10% dialyzed FBS, 20 mM HEPES, and 100 units/mL penicillin/streptomycin (assay media). Plated cells were incubated overnight at 37° C. in the presence of 5% CO2. The following day, the medium was exchanged from the cells to assay buffer [Hanks' balanced salt solution (Invitrogen) containing 20 mM HEPES, pH 7.3] using an ELX405 microplate washer (BioTek), leaving 20 μL/well, followed by the addition of 20 μL/well FluoZin2-AM (330 nM final concentration) indicator dye (Invitrogen; prepared as a stock in DMSO and mixed in a 1:1 ratio with Pluronic acid F-127) in assay buffer. Cells were incubated for 1 h at room temperature, and the dye exchanged to assay buffer using an ELX405, leaving 20 μL/well. Test compounds were diluted to 2 times their final desired concentration in assay buffer (0.3% DMSO final concentration). Agonists were diluted in thallium buffer [125 mM sodium bicarbonate (added fresh the morning of the experiment), 1 mM magnesium sulfate, 1.8 mM calcium sulfate, 5 mM glucose, 12 mM thallium sulfate, and 10 mM HEPES, pH 7.3] at 5 times the final concentration to be assayed. Cell plates and compound plates were loaded onto a kinetic imaging plate reader (FDSS 6000 or 7000; Hamamatsu Corporation, Bridgewater, NJ). Appropriate baseline readings were taken (10 images at 1 Hz; excitation, 470±20 nm; emission, 540±30 nm) and test compounds were added in a 20 μL volume and incubated for approximately 2.5 min before the addition of 10 μL of thallium buffer with or without agonist. After the addition of agonist, data were collected for approximately an additional 2.5 min. Data were analyzed using Excel (Microsoft Corp, Redmond, WA). The slope of the fluorescence increase beginning 5 s after thallium/agonist addition and ending 15 s after thallium/agonist addition was calculated, corrected to vehicle and maximal agonist control slope values, and plotted in using either XLfit (ID Business Solutions Ltd) or Prism software (GraphPad Software, San Diego, CA) to generate concentration-response curves. Potencies were calculated from fits using a four-point parameter logistic equation. For concentration-response curve experiments, compounds were serially diluted 1:3 into 10-point concentration response curves and were transferred to daughter plates using an Echo acoustic plate reformatter (Labcyte, Sunnyvale, CA). Test compounds were applied and followed by EC20 concentrations of glutamate.

Rat mGlu2 = target: T2, Rat mGlu2 (Rattus norvegicus, UniProt P31421); assay: mGlu receptor in vitro assay, thallium flux through GIRK channels, rat mGlu2; format: cell-based; conditions: PAM potency with EC20 glutamate
T2 construct: expressed in transfected cells; host or cells: HEK-293 co-expressing GIRK channels
Procedure: as §1, §2

T1 sequence (P31422 23-879): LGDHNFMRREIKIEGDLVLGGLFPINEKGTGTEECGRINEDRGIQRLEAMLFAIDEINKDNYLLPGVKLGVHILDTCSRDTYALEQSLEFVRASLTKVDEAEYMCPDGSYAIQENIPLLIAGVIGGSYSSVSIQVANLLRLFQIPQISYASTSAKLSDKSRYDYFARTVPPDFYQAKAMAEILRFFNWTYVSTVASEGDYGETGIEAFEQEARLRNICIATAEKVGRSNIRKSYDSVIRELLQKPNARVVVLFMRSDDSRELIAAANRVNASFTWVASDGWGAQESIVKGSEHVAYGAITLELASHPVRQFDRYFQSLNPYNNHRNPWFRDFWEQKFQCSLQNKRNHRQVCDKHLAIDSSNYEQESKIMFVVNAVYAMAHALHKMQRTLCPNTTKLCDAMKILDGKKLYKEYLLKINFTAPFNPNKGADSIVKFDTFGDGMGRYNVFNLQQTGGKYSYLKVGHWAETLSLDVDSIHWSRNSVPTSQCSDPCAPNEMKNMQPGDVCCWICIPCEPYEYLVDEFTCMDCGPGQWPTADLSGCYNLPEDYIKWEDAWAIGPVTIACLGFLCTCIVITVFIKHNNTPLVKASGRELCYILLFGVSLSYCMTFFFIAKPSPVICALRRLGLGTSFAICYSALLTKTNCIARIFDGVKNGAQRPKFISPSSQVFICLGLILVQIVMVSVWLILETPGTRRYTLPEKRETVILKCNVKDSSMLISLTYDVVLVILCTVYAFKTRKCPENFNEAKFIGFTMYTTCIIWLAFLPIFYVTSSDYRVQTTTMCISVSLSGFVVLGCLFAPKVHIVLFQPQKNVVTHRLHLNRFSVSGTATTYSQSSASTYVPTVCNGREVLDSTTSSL
T2 sequence (P31421 19-872): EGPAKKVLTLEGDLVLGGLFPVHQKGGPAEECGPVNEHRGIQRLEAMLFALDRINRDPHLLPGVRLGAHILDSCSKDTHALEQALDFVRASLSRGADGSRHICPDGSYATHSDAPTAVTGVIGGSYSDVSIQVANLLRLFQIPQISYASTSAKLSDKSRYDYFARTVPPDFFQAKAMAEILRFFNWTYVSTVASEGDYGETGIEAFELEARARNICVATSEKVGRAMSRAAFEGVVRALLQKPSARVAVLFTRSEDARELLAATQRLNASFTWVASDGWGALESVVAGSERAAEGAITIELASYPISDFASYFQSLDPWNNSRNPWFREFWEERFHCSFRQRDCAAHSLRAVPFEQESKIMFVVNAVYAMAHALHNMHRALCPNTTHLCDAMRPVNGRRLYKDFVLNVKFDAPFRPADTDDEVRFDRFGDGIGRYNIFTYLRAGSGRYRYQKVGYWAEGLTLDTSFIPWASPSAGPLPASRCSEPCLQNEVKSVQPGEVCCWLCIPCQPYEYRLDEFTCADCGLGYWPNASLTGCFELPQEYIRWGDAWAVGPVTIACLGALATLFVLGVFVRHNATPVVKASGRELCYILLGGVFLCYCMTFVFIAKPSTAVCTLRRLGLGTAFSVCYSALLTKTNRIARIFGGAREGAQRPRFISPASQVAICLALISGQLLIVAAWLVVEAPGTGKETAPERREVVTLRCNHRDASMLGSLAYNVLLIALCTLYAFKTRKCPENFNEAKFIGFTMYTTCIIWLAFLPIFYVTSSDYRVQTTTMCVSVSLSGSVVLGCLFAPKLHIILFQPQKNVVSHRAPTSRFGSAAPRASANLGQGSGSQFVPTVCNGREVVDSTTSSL

SMILES | EC50 (Rat mGlu3) [nM] | EC50 (Rat mGlu2) [nM]
Cc1c(OCc2cnc(-c3cccc(NC(=O)NS(C)(=O)=O)c3)cn2)ccc(C(=O)CC(C)(C)C)c1O [compound 89, N-((3-(5-((4-(3,3-Dimethylbutanoyl)-3-hydroxy-2-methylphenoxy)methyl)pyrazin-2-yl)phenyl)carbamoyl)methanesulfonamide] | 4670 | 2380
COc1ccc(C(=O)O)cc1OCCCOc1ccc(C(=O)CC(C)(C)C)c(O)c1C [compound 92, 3-{3-[4-(3,3-Dimethylbutanoyl)-3-hydroxy-2-methylphenoxy]propoxy}-4-methoxybenzoic acid] | 234 | 57
CCCC(=O)c1ccc(OCOc2cccc(C(=O)O)c2C)c(C)c1O [compound 95, 3-[(4-Butanoyl-3-hydroxy-2-methylphenoxy)methoxy]-2-methylbenzoic acid] | > 30000 | 663
COc1ccc(C(=O)O)cc1OCCCCOc1ccc(C(O)CC(C)(C)C)c(O)c1C (stereo not shown) [compound 96, 3-{4-[3-Hydroxy-4-(1-hydroxy-3,3-dimethylbutyl)-2-methylphenoxy]butoxy}-4-methoxybenzoic acid] | > 10000 | 1640
Cc1c(Oc2cccc(C(=O)O)c2)ccc(C(=O)CC(C)(C)C)c1O [compound 97, 3-[4-(3,3-Dimethylbutanoyl)-3-hydroxy-2-methylphenoxy]benzoic acid] | > 10000 | 1380
COc1ccc(C(=O)O)cc1OCCCCOc1ccc(C(=O)C(C)(C)C)c(O)c1C [compound 105, 3-(4-(3-Hydroxy-2-methyl-4-pivaloylphenoxy)butoxy)-4-methoxybenzoic acid] | 743 | 288
CCCC(=O)c1ccc(OCc2cnc(-c3ccc(C(=O)O)c(Cl)c3)cn2)c(C)c1O [compound 107, 4-{5-[(4-Butanoyl-3-hydroxy-2-methylphenoxy)methyl]pyrazin-2-yl}-2-chlorobenzoic acid] | 2140 | 254
Cc1c(OCc2ccnc(-c3cccc(C(=O)O)c3)n2)ccc(C(=O)CC(C)(C)C)c1O [compound 114, 3-(4-((4-(3,3-Dimethylbutanoyl)-3-hydroxy-2-methylphenoxy)methyl)pyrimidin-2-yl)benzoic acid] | 258 | 391
Cc1c(OCc2ccc(-c3cccc(C(=O)O)c3)nn2)ccc(C(=O)CC(C)(C)C)c1O [compound 119, 3-(6-((4-(3,3-Dimethylbutanoyl)-3-hydroxy-2-methylphenoxy)methyl)pyridazin-3-yl)benzoic acid] | 616 | 916
COc1ccc(C(=O)O)cc1OCCCCOc1ccc(C(=O)Cc2ccccc2)c(O)c1C [compound 120, 3-(4-(3-Hydroxy-2-methyl-4-(2-phenylacetyl)phenoxy)butoxy)-4-methoxybenzoic acid] | 642 | 220
Cc1c(OCc2cnc(-c3cccc(-c4noc(=S)[nH]4)c3)cn2)ccc(C(=O)CC(C)(C)C)c1O [compound 123, 1-(2-Hydroxy-3-methyl-4-((5-(3-(5-thioxo-4,5-dihydro-1,2,4-oxadiazol-3-yl)phenyl)pyrazin-2-yl)methoxy)phenyl)-3,3-dimethylbutan-1-one] | 2640 | 2520
Cc1c(OCc2cnc(-c3cccc(-c4noc(=O)[nH]4)c3)cn2)ccc(C(=O)CC(C)(C)C)c1O [compound 124, 3-(3-(5-((4-(3,3-Dimethylbutanoyl)-3-hydroxy-2-methylphenoxy)methyl)pyrazin-2-yl)phenyl)-1,2,4-oxadiazol-5(4H)-one] | 1690 | 2480

The remaining lines, values ahead:

EC50 (Rat mGlu3) [nM] | EC50 (Rat mGlu2) [nM] | SMILES
923 | 322 | COc1ccc(C(=O)O)cc1OCc1cccc(COc2ccc(C(=O)CC(C)(C)C)c(O)c2C)c1 [compound 90, 3-((3-((4-(3,3-Dimethylbutanoyl)-3-hydroxy-2-methylphenoxy)methyl)benzyl)oxy)-4-methoxybenzoic acid]
1220 | 207 | COc1ccc(C(=O)O)cc1OCCOc1ccc(C(=O)CC(C)(C)C)c(O)c1C [compound 93, 3-{2-[4-(3,3-Dimethylbutanoyl)-3-hydroxy-2-methylphenoxy]ethoxy}-4-methoxybenzoic acid]
> 30000 | > 10000 | Cc1c(OCCCCCOc2cccc(C(=O)O)c2C)cccc1C(=O)O [compound 98, 3-[5-(3-Carboxy-2-methylphenoxy)pentyloxy]-2-methylbenzoic acid]
> 30000 | 167 | CCCC(=O)c1ccc(OCC(=O)c2cccc(-c3cccc(C(=O)O)c3C)c2)c(C)c1O [compound 99, 3-{3-[2-(4-Butanoyl-3-hydroxy-2-methylphenoxy)acetyl]phenyl}-2-methylbenzoic acid]
523 | 535 | Cc1c(OCc2cnc(-c3ccc(C(=O)O)c(Cl)c3)cn2)ccc(C(=O)CC(C)(C)C)c1O [compound 106, 4-(5-{[4-(3,3-Dimethylbutanoyl)-3-hydroxy-2-methylphenoxy]methyl}pyrazin-2-yl)-2-chlorobenzoic acid]
> 30000 | 110 | CCCC(=O)c1ccc(OCCCCCOc2cnc(C)c(C(=O)O)c2)c(C)c1O [compound 108, 5-[5-(4-Butanoyl-3-hydroxy-2-methylphenoxy)pentyloxy]-2-methylpyridine-3-carboxylic acid]
327 | 1040 | Cc1c(OCc2cnc(-c3cccc(C(=O)O)c3)cn2)ccc(C(=O)C(C)(C)C)c1O [compound 110, 3-(5-((3-Hydroxy-2-methyl-4-pivaloylphenoxy)methyl)pyrazin-2-yl)benzoic acid]
> 30000 | > 10000 | CCCC(=O)c1ccc(OCCCCCOc2ccc(C(=O)CCC)c(O)c2C)c(C)c1O [compound 111, 1-{4-[5-(4-Butanoyl-3-hydroxy-2-methylphenoxy)pentyloxy]-2-hydroxy-3-methylphenyl}butan-1-one]
281 | 217 | Cc1c(OCc2cncc(-c3cccc(C(=O)O)c3)n2)ccc(C(=O)CC(C)(C)C)c1O [compound 112, 3-(6-((4-(3,3-Dimethylbutanoyl)-3-hydroxy-2-methylphenoxy)methyl)pyrazin-2-yl)benzoic acid]
333 | 1270 | Cc1c(OCc2cnc(-c3cccc(C(=O)NC4CC4)c3)cn2)ccc(C(=O)CC(C)(C)C)c1O [compound 113, N-Cyclopropyl-3-(5-((4-(3,3-dimethylbutanoyl)-3-hydroxy-2-methylphenoxy)methyl)pyrazin-2-yl)benzamide]
> 30000 | > 30000 | Cc1c(OCc2cnc(-c3cccc(S(N)(=O)=O)c3)cn2)ccc(C(=O)CC(C)(C)C)c1O [compound 117, 3-(5-((4-(3,3-Dimethylbutanoyl)-3-hydroxy-2-methylphenoxy)methyl)pyrazin-2-yl)benzenesulfonamide]
1020 | 482 | CCCC(=O)c1ccc(OCc2cnc(-c3cccc(C(=O)O)c3)cn2)c(C)c1O [compound 118, 3-(5-((4-Butyryl-3-hydroxy-2-methylphenoxy)methyl)pyrazin-2-yl)benzoic acid]
593 | 782 | Cc1c(OCc2cnc(-c3cccc(C(=O)O)c3)cn2)ccc(C(=O)Cc2ccccc2)c1O [compound 121, 3-(5-((3-Hydroxy-2-methyl-4-(2-phenylacetyl)phenoxy)methyl)pyrazin-2-yl)benzoic acid]
282 | 539 | Cc1c(OCc2cnc(-c3cccc(-c4nn[nH]n4)c3)cn2)ccc(C(=O)CC(C)(C)C)c1O [compound 122, 1-(4-((5-(3-(2H-Tetrazol-5-yl)phenyl)pyrazin-2-yl)methoxy)-2-hydroxy-3-methylphenyl)-3,3-dimethylbutan-1-one]
